The text below walks through data of ChEMBL document CHEMBL1135515, “Discovery of aminopyridine-based inhibitors of bacterial enoyl-ACP reductase (FabI)” (J Med Chem, 2002).

≈ marks a conversion by molar mass, not a printed value. Bounds are passed on as bounds.

Usually IC50 stands for the midpoint of a concentration-inhibition curve. Higher therefore signals weaker potency in that assay.

Assay [1] relates to Enterococcus faecalis. Put plainly: Minimum concentration required for inhibition of Enterococcus faecalis was determined. The assay is classed as functional.
Assay [2] concerns Haemophilus influenzae. Description: Minimum concentration required for inhibition of Haemophilus influenzae was determined. Type of assay: functional.
Assay [3] relates to Staphylococcus aureus. Description: Minimum concentration required for inhibition of Staphylococcus aureus was determined. The assay is classed as functional.
In assay [4] the test system is Streptococcus pneumoniae. Description: Minimum concentration required for inhibition of Streptococcus pneumoniae was determined. Type of assay: functional.
Assay [5] deals with T1, Enoyl-[acyl-carrier-protein] reductase [NADPH] FabI (Staphylococcus aureus, UniProt Q6GI75).
T1 sequence (Q6GI75 whole entry): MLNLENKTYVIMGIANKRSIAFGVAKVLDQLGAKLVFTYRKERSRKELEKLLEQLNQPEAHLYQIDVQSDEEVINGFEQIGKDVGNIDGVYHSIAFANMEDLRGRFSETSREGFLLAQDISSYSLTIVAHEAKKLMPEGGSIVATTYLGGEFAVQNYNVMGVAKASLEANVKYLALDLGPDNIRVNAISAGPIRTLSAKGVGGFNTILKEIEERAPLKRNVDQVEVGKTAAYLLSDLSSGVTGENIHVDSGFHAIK
Description: Concentration required for the 50% inhibition of enoyl-ACP reductase from Staphylococcus aureus was determined.

The nature of assay [6]: Concentration required for the 50% inhibition of enoyl-ACP reductase from Haemophilus influenzae was determined.
In another assay the test system is Moraxella catarrhalis. Description: Minimum concentration required for inhibition of Moraxella catarrhalis was determined. The assay is classed as functional.
Assay [7] deals with Enterococcus faecalis. Description: Minimum inhibitory concentration against growth of Enterococcus faecalis. The assay is classed as functional.
Assay [8] in a line: Inhibitory concentration against Streptococcus pneumoniae Enoyl-ACP reductase.
In assay [9] the test system is Haemophilus influenzae. Put plainly: Antibacterial activity was measured against Haemophilus influenzae. The assay is classed as functional.
Assay [10] concerns Staphylococcus aureus. Description: Antibacterial activity was measured against Staphylococcus aureus. Type of assay: functional.
Assay [11] deals with Streptococcus pneumoniae. Put plainly: Minimum inhibitory concentration against growth of Streptococcus pneumoniae. The assay is classed as functional.
A short description of assay [12]: Compound was measured for the inhibition of enoyl-ACP reductase from Staphylococcus aureus.
The nature of assay [13]: Compound was measured for the inhibition of enoyl-ACP reductase from Haemophilus influenzae.
The next assay concerns Escherichia coli. Put plainly: Minimum concentration required for inhibition of Escherichia coli AcrAB was determined. Type of assay: functional.
Assay [14] can be described thus: Concentration required for the 50% inhibition of Enoyl-ACP reductase from Streptococcus pneumoniae was determined.
Assay [15] concerns Haemophilus influenzae. Put plainly: Minimum concentration required for the inhibition of Haemophilus influenzae was determined. Type of assay: functional.
The subject of assay [16] is Staphylococcus aureus. Put plainly: Minimum concentration required for the inhibition of Staphylococcus aureus was determined. The assay is classed as functional.

Consider `CC(=O)N(C)Cc1cc(C(=O)N(C)Cc2cc3ccccc3n2C)ccc1N`, for which the MIC was more than 64 µg/mL with Enterococcus faecalis [1], more than 64 µg/mL against Haemophilus influenzae [2], 16 µg/mL (≈ 42.3 µM) against Staphylococcus aureus [3] and more than 64 µg/mL against Streptococcus pneumoniae [4]. Moreover, the figures for the IC50 in assay [5] and in assay [6] were 6.7 µM and 4.7 µM, respectively.

Regarding `CN(Cc1cc2ccccc2n1C)C(=O)CCc1ccc(N)nc1`, the MIC with Enterococcus faecalis [1], in the assay on Haemophilus influenzae [2], with Staphylococcus aureus [3] and against Streptococcus pneumoniae [4] was more than 64 µg/mL throughout. Also, the IC50 worked out at 93.7 µM in assay [5] and 97.4 µM in assay [6].

`CN1Cc2cc(C(=O)N(C)Cc3cc4ccccc4n3C)ccc2NCC1=O`: the MIC was more than 64 µg/mL with Enterococcus faecalis [1], more than 64 µg/mL against Haemophilus influenzae [2], 16 µg/mL (≈ 42.5 µM) against Staphylococcus aureus [3] and more than 64 µg/mL in the assay with Streptococcus pneumoniae [4]. Moreover, the IC50 was found to be 21.2 µM in assay [5] and 2.5 µM in [6].

On to `CN(Cc1cc2ccccc2n1C)C(=O)c1ccccc1`, for which the MIC in the assay on Enterococcus faecalis [1], in the assay on Haemophilus influenzae [2], in the assay with Staphylococcus aureus [3] and against Streptococcus pneumoniae [4] was more than 64 µg/mL each time. For the same compound, the IC50 in [5] and in assay [6] was more than 100 µM each time.

`COC(=O)CC1Nc2ccc(C(=O)N(C)Cc3cc4ccccc4n3C)cc2CN(C)C1=O` (stereo unspecified): the MIC in the assay with Enterococcus faecalis [1] is more than 64 µg/mL; in the assay on Haemophilus influenzae [2], more than 64 µg/mL; in the assay with Moraxella catarrhalis, 32 µg/mL (≈ 71.3 µM); against Staphylococcus aureus [3], more than 64 µg/mL; with Streptococcus pneumoniae [4], more than 64 µg/mL. For the same compound, the results for the IC50 in assay [5] and in assay [6] were 16.5 µM and 6.9 µM, respectively.

As for `CN(Cc1cc2ccccc2n1C)C(=O)/C=C/c1cnc(N)nc1`, the MIC is more than 64 µg/mL against Enterococcus faecalis [1], more than 64 µg/mL in the assay on Haemophilus influenzae [2], 2 µg/mL (≈ 6.22 µM) in the assay on Staphylococcus aureus [3] and more than 64 µg/mL in the assay with Streptococcus pneumoniae [4]. Besides, the IC50 in [5] was determined as 2.2 µM; in assay [6] it was 4.3 µM.

Consider `CN(Cc1cc2ccccc2n1C)C(=O)/C=C/c1ccc(N)cc1`, for which the MIC against Enterococcus faecalis [7] was more than 64 µg/mL; in the assay with Haemophilus influenzae [9], more than 64 µg/mL; in the assay with Staphylococcus aureus [10] it was 32 µg/mL (≈ 100 µM); in the assay with Streptococcus pneumoniae [11], more than 64 µg/mL. Also, the IC50 in assay [8] was more than 30 µM; in assay [12], more than 11.2 µM; in assay [13], 9 µM.

Regarding `CN(Cc1cc2ccccc2n1C)C(=O)/C=C/c1cccnc1`, the MIC against Enterococcus faecalis [1] is more than 64 µg/mL; against Haemophilus influenzae [2], more than 64 µg/mL; in the assay on Staphylococcus aureus [3], 16 µg/mL (≈ 52.4 µM); with Streptococcus pneumoniae [4], more than 64 µg/mL. Further, the results for the IC50 in assay [5] and in [6] were 14.2 µM and 15.2 µM, respectively.

As for `CC(=O)N(C)Cc1cccc(C(=O)N(C)Cc2cc3ccccc3n2C)c1`, the MIC in the assay with Enterococcus faecalis [1], in the assay with Haemophilus influenzae [2], against Staphylococcus aureus [3] and in the assay on Streptococcus pneumoniae [4] was more than 64 µg/mL throughout. Besides, the IC50 is 107 µM in [5] and 121 µM in [6].

`CN(Cc1cc2ccccc2n1C)C(=O)c1ccc2c(c1)CN(C)C(=O)[C@H](C(=O)O)N2`: the MIC with Enterococcus faecalis [1], against Haemophilus influenzae [2], in the assay with Staphylococcus aureus [3] and in the assay on Streptococcus pneumoniae [4] was more than 64 µg/mL in each case. Further, the half-inhibitory concentration (IC50) in assay [5] was 676 µM; in assay [6], more than 100 µM.

On to `CN(Cc1cc2ccccc2n1C)C(=O)/C=C/c1ccc(N)nc1`, for which the MIC against Escherichia coli was 8 µg/mL (≈ 25 µM); in the assay with Enterococcus faecalis [1], more than 64 µg/mL; in the assay with Haemophilus influenzae [2] it was more than 64 µg/mL; with Moraxella catarrhalis it was 4 µg/mL (≈ 12.5 µM); in the assay on Staphylococcus aureus [3], 0.5 µg/mL (≈ 1.56 µM); against Streptococcus pneumoniae [4] it was more than 64 µg/mL. For the same compound, the figures for the IC50 in [5] and in assay [6] were 2.4 µM and 4.2 µM, respectively.

As to `CN(Cc1cc2ccccc2n1C)C(=O)c1ccc(N)nc1`, the MIC with Enterococcus faecalis [1], with Haemophilus influenzae [2], in the assay with Staphylococcus aureus [3] and against Streptococcus pneumoniae [4] was more than 64 µg/mL in each case. Also, the IC50 was more than 100 µM in assay [5] and 19.2 µM in [6].

`COC(=O)C[C@H]1Nc2ccc(C(=O)N(C)Cc3cc4ccccc4n3C)cc2CN(C)C1=O`: the MIC with Enterococcus faecalis [1], in the assay on Haemophilus influenzae [2], against Staphylococcus aureus [3] and against Streptococcus pneumoniae [4] was more than 64 µg/mL in each case. The values for the IC50 in [5] and in assay [6] were 9.9 µM and 5.1 µM, respectively.

In the case of `CN(Cc1cc2ccccc2n1C)C(=O)c1ccc(N)cc1`, the MIC in the assay with Enterococcus faecalis [1] is more than 64 µg/mL; with Haemophilus influenzae [2] it was more than 64 µg/mL; in the assay with Staphylococcus aureus [3], 32 µg/mL (≈ 109 µM); against Streptococcus pneumoniae [4] it was more than 64 µg/mL. The IC50 in assay [5] turned out to be 16.3 µM; in assay [6], 2.6 µM.

For `Oc1cc(Cl)ccc1Oc1ccc(Cl)cc1Cl` [TRICLOSAN], the IC50 in assay [14] is more than 30 µM. Moreover, the MIC against Haemophilus influenzae [15] and with Staphylococcus aureus [16] was not above 0.06 µg/mL throughout.
